# Source: ChEMBL document CHEMBL1142460, “2,4(5)-Diarylimidazoles: synthesis and biological evaluation of a new class of sodium channel blockers against hNa(v)1.2” (Bioorg Med Chem Lett, 2008)
# Assays:
# [1] = biological target: Sodium channel protein type 2 subunit alpha (Homo sapiens) (UniProt Q99250); assay: Inhibition of Nav1.2 channel in HEK cells at 10 uM by patch clamp technique; type: cell-based; design: scale not given: the % may be the effect or the level left; conditions: HEK293
# [2] = biological target: Sodium channel protein type 2 subunit alpha (Homo sapiens) (UniProt Q99250); assay: Inhibition of Nav1.2 channel in HEK cells at 100 uM by patch clamp technique; type: cell-based; design: scale not given: the % may be the effect or the level left; conditions: HEK293
# Chain of Sodium channel protein type 2 subunit alpha (Homo sapiens) (Q99250 whole entry, looked up): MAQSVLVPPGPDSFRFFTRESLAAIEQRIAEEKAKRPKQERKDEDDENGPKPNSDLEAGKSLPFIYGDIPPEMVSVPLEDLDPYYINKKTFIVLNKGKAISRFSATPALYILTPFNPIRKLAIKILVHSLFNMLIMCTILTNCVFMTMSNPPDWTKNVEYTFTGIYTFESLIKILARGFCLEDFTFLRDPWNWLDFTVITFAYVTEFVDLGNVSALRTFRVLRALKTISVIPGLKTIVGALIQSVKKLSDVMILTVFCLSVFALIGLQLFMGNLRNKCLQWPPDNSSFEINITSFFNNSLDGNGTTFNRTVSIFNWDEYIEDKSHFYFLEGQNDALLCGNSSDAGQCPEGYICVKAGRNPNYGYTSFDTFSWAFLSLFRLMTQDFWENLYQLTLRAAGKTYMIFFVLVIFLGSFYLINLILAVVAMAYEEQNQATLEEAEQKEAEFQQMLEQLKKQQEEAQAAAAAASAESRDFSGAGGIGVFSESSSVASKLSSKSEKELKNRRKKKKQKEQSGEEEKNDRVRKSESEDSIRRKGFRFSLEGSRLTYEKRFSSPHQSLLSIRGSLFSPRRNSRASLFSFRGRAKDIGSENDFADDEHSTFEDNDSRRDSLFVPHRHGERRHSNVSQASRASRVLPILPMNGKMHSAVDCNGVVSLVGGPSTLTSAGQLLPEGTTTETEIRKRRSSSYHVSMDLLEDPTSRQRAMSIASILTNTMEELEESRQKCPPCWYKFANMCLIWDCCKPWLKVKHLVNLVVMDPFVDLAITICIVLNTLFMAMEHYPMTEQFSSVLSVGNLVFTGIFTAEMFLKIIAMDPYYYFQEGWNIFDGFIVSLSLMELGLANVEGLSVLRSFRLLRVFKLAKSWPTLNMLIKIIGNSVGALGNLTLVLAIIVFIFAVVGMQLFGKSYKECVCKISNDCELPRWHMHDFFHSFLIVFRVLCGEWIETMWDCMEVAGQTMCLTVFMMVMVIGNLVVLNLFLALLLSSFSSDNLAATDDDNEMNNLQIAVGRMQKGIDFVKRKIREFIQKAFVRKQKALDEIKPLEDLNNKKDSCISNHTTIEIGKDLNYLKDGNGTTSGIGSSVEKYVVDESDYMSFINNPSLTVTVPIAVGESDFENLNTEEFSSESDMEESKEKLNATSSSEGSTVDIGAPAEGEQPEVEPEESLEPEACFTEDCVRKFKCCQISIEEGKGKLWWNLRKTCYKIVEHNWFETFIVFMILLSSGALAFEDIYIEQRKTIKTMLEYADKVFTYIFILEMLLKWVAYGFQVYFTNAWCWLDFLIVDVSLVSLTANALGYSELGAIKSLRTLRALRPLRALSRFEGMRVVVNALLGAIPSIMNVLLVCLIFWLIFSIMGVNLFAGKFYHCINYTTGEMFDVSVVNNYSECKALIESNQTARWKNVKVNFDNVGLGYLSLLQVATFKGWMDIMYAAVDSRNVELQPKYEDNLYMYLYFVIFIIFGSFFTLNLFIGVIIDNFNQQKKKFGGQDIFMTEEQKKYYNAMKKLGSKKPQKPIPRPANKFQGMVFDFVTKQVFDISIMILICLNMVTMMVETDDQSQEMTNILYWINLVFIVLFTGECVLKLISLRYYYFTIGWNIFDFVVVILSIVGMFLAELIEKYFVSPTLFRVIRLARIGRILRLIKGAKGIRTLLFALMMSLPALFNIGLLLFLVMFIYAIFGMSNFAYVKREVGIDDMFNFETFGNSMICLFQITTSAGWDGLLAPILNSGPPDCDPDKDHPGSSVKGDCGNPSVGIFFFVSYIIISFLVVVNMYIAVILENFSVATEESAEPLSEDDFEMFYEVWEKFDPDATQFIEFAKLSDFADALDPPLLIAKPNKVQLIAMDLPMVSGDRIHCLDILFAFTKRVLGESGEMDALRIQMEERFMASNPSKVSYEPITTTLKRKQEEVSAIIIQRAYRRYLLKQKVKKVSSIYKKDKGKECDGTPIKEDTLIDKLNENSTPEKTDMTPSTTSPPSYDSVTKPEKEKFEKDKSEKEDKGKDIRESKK
SMILES,Activity [1] [%],Activity [2] [%]
c1ccc(-c2c[nH]c(-c3cc4ccccc4o3)n2)cc1,37.7,72.4
c1ccc(-c2c[nH]c(-c3ccsc3)n2)cc1,5.1,70.9
O=C1NC(=O)C(c2ccccc2)(c2ccccc2)N1,10.6,21.2
Nc1nnc(-c2cccc(Cl)c2Cl)c(N)n1,12.1,35.1
c1ccc(-c2c[nH]c(-c3ccoc3)n2)cc1,11.9,27.3

# Now from value to compound:
Activity [1] [%],Activity [2] [%],SMILES
8,40.7,c1ccc(-c2c[nH]c(-c3ccncc3)n2)cc1
26.7,91.5,c1ccc(-c2c[nH]c(C3CCCCC3)n2)cc1
7.8,80.5,c1ccc(-c2c[nH]c(-c3ccccc3)n2)cc1
4.7,22.5,c1ccc(-c2c[nH]c(-c3cccnc3)n2)cc1
2.7,37.7,c1ccc(-c2c[nH]c(-c3ccco3)n2)cc1
